Row | melting point [°C] | Compound
1 | 92 to 95 | C=CC(=O)Oc1cccc(O)c1O
2 | 146 | CC(C)CCC(=O)Nc1ccc2oc3c(c2c1)CCCC3
3 | 115 to 118 | CN(C)S(=O)(=O)C=C(C(=O)C1CCCCC1)c1cccc([N+](=O)[O-])c1
4 | 172 to 173 | COc1ccc(N2CCOCC2)c2sc(NC(=O)C[C@H]3CC[C@@H](OC(C)=O)C3)nc12 (relative stereo)
5 | 160 to 163 | O=C(O)CCCCCSc1ccc(NS(=O)(=O)c2ccc(Cl)cc2)cc1
6 | 169 | Cn1c(CNCC(C)(C)O)cc2cc(NC(=O)c3ccc(OCC4CCOC4)cc3)ccc21 (stereo not given)
7 | 252 to 254 | Cn1ncc2cc(NC(=O)Nc3ccc(C(F)(F)F)cc3)ccc21
8 | 96 to 97 | CCCCOc1c(CO)n(CC2CC2)c(=O)c2ccc(OCc3ccccc3)cc12
9 | 174 to 176 | CN1C(=O)CCC2(C)c3ccc(Sc4ccccn4)cc3CCC12 (single isomer, unassigned; (+))
10 | 145 to 147 | CCSc1ccc(-c2ccncc2)c2c1C(=O)CC(C)C2 (stereo not given)
11 | 172 to 175 | O=C(O)c1ccc2cnn(C3CCCC3)c2c1
12 | 253 to 254 | COc1cc(C(=O)NS(=O)(=O)c2ccccc2)ccc1Cc1csc2ccc(NC(=O)OC3CCCC3)cc12
13 | 151 | O=C1c2cc([N+](=O)[O-])ccc2OCCN1CCO
14 | 103 to 104 | O=C1NCCN(Cc2ccc(Cl)cc2)C1c1ccccc1 (stereo not given)
15 | 146 to 148 | Cn1c(SCC(=O)C23CC4CC(CC(C4)C2)C3)nc2ccccc21
16 | 272 to 274 | O=C(Nc1ccccn1)c1cnc2c(c1O)CN(C(=O)OCc1ccccc1)CC2

Row | melting point [°C] | Compound
17 | 291 to 293 | S=C1N=c2ccc(OCCN3CCC(Cc4ccc(Cl)cc4)CC3)cc2=N1
18 | 200 to 204 | Cc1cc(C)n(C)c(=O)c1C(=O)O
19 | 134 to 136 | O=C(c1cc2cc(OCc3ccccc3)ccc2[nH]1)C1(c2ccc(Cl)cc2)CCCC1
20 | > 250 | O=C(Nc1cccc2c1ncc1ccc(O)cc12)c1c(Cl)cccc1Cl
21 | 213 to 215 | Cc1cccc(C)c1NC(=O)C=CC(=O)c1ccc(Cl)c(Cl)c1
22 | 255 to 256 | CON=C1CN(c2c(F)cc3c(=O)c(C(=O)O)cn(C4CC4)c3c2F)CC12CN(C(=O)OC(C)(C)C)C2
23 | 152 | COc1cc2c(cc1Nc1ncc(Cl)c(N[C@H]3[C@@H](C(N)=O)[C@@H]4C=C[C@H]3C4)n1)NC(=O)CN(CC1CC1)C2
24 | 176 to 178 | Cc1ccc(CNc2c3c(nc4ccccc24)CCCC3O)cc1 (stereo not given)
25 | 167 to 172 | CCCCc1nc2c(c(=O)[nH]1)CN(C(=O)C(C)(C)C)CC2
26 | 160 to 162 | O=C(O)c1cncc(OCc2ccccc2)n1
27 | 115 to 119 | O=C(O)C(Sc1ccccc1)c1cc(Cl)cc(Cl)c1 (stereo not given)
28 | 183 to 186 | Cc1ccc(-c2ccc(C(=O)CCC(=O)O)cc2)cc1
29 | 222 | Clc1nc(NCc2ccc3c(c2)OCO3)c2c3c(sc2n1)CCCC3
30 | 129 to 132 | CON=C(Cn1c(=O)ccc2ccccc21)c1ccc(C)cc1
31 | 125 to 128 | CN(C(=O)CCCOc1ccc2c(c1)CN(CC(=O)O)C(N)=N2)C1CCCCC1

Second part, the compound before the results:

Row | Compound | melting point [°C]
32 | NS(=O)(=O)Oc1cccc(Br)c1 | 90 to 91.5
33 | CC1(c2ccc(O)c([N+](=O)[O-])c2)C(=O)Nc2cc(Cl)cc(Cl)c2C1=O (stereo not given) | 239 to 240
34 | O=[N+]([O-])c1cc(Cl)ccc1CBr | 42 to 43
35 | CC(C)Oc1c(C(=O)Nc2nnn[nH]2)sc2c1CS(=O)(=O)CC2 | 230 to 232
36 | c1ccc(COc2cccc(CCCn3ccnc3)c2)cc1 | 82 to 83
37 | CCCCCCCCCCCCCCCCCCNC(=O)OC(=O)CCCCCCCCCCCCCCCCC | 84
38 | CC(=O)OCCc1ccc2c(c1)Cc1ccccc1O2 | 62 to 64
39 | CCCCCCCCCC(O)P(=O)(O)O (stereo not given) | 164
40 | COc1cc2c(cc1OC)C(O)=C(c1cc(OCc3ccccc3)ccc1[N+](=O)[O-])C2=O | 120
41 | CN(C)CCSc1ncccc1C(O)c1ccccc1 (stereo not given) | 88 to 89
42 | FC(F)(F)c1c[nH]c(-c2ccc(-c3nc(C(F)(F)F)c[nH]3)cc2)n1 | 325
43 | COc1cc(Cc2c(N)nc(N)nc2Cl)cc(OC)c1N | 222 to 224
44 | Cc1onc(-c2ccccc2)c1-c1csc(N)n1 | 223 to 224
45 | CC(=NOCCOc1ccc(CC2SC(=O)NC2=O)cc1)c1ccc(OCc2ccccc2)nc1 (stereo not given) | 160 to 161
46 | CC(Oc1ccccc1[N+](=O)[O-])c1nnc(N)s1 (stereo not given) | 137 to 142
47 | CC(C)(C)CC(C)(C)c1ccc(O)c(-n2nc3ccc(C(F)(F)F)cc3n2)c1 | 80 to 81
48 | CCOC(=O)CCCCOc1ccc([N+](=O)[O-])c(C=C2C(=O)NC(=O)N2C)c1 | 121 to 123
49 | COc1ccc(-c2oc3c(CC=C(C)C)c(OC4OC(CO)C(O)C(O)C4O)cc(O)c3c(=O)c2OC2OC(C)C(O)C(O)C2O)cc1 (stereo not given) | 231 to 233
50 | CCCn1c(=O)c2c(nc(C=Cc3cc(OC)c(OC)cc3S(=O)(=O)Nc3ccccc3)n2C)n(CCC)c1=O | 247 to 249
51 | COc1cc(SC#N)cc(C#N)c1N | 121 to 122

Row | Compound | melting point [°C]
52 | CSc1nc(C)ccc1NC(=O)CCCCCCCCSc1nc2ccccc2[nH]1 | 73 to 75
53 | c1ccc(Cc2ncc(-c3ccc4cc(OCc5nnn[nH]5)ccc4c3)o2)cc1 | 227 to 228
54 | COC(=O)Cc1ccc(CNC(=O)C2Cc3ccccc3N2S(=O)(=O)c2ccc(-c3ccc(F)cc3C)cc2)cc1 (stereo not given) | 71 to 75
55 | CC(C)c1nn(-c2ccc(C(F)(F)F)cc2)cc1COc1cccc(CC(=O)O)c1 | 92 to 93
56 | O=C1CC(c2ccc(F)cc2)c2ccccc21 (stereo not given) | 120 to 121
57 | Cc1ccc(F)c(-c2ccc(S(=O)(=O)N3c4ccccc4CC3C(=O)NCCOc3ccc(CC(=O)O)cc3)cc2)c1 (stereo not given) | 82 to 85
58 | COc1cc2nc(N3CCc4c(ncnc4N4CCOCC4)C3)[nH]c(=O)c2cc1OC | 288 to 290
59 | COC(=O)NC(CCc1ccccc1)C(=O)O (stereo not given) | 108 to 110
60 | O=c1c(-c2n[nH]c3ccccc23)coc2ccccc12 | 159 to 160
61 | CC(C)n1nccc1-c1nn(-c2cccc(C(F)(F)F)c2)ccc1=O | 183 to 184
62 | CCCOc1ccc(-c2ccc(-c3ccccc3Cl)n2Cc2ccc(OCCO)c(N)n2)cc1 | 89 to 92
63 | CCCCc1oc2ccc(CO)cc2c1C(=O)c1ccc(O)cc1 | 180 to 182
64 | COc1c(C#N)cc(-c2c3ccccc3cc3sc4ccccc4c23)cc1C#N | 214 to 215
65 | c1csc(CNCc2ccc(-c3cc4ncnc(Nc5ccc6[nH]ccc6c5)c4s3)cc2)c1 | 111 to 121
66 | CCS(=O)(=O)c1cc(OC)c(OC)c(C(=O)O)c1 | 138 to 139
67 | Cc1cc(O)c(SCc2cccc3ccccc23)c(=O)o1 | 170
68 | Cc1cc(Cl)nnc1-c1ccc(Br)cc1 | 197 to 200
69 | C=CCOc1ccc2c(C)c(C#N)c(=O)oc2c1C | 172
70 | Cc1cc(NC(=O)c2cccc(CCc3cc(Nc4ccccc4)n[nH]3)c2)ccc1C(C)C | 150 to 151
